Experimental data reported in patent US4417052A, “Phenyl-lower-alkyl piperidines and pyrrolidines” (Sterling Drug Inc., priority 1981, dated 1983).
Counter-ions that a name gives are not always drawn.

System: carrageenin-induced foot edema
Assay: inhibition of carrageenin-induced foot edema test (C.E.)
Type: in vivo
Conditions: oral; for inhibition in vivo at 4 µmol/kg: dose 0.004 millimoles/kg; for inhibition in vivo at 20 µmol/kg: dose 0.02 millimoles/kg; for C.E. percent inhibition (Table B): formula V amides
Experimental: Anti-inflammatory activity was determined using (1) the inhibition of carrageenin-induced foot edema test essentially described by Winter et al., Proc. Soc. Exp. Biol. and Med. 111, 554 (1962) as modified by Van Arman et al., J. Pharmacol. Exptl. Therap. 150, 328 (1965) and (2) a modification of the inhibition of adjuvant-induced arthritis test described by Pierson, J. Chronic Diseases 16, 863 (1963) and Glenn et al., Am. J. Vet. Res. 26, 1180 (1965).
The N-{2-,3- and 4-[R1 -(phenyl)-C(=X)]-phenyl-lower-alkyl}amines of formulas I, Ia and Ib of the invention have been tested in the carrageenin edema (CE) and adjuvant arthritis (AA) tests and found to have anti-inflammatory activity. For comparative purposes, data obtained in the carrageenin edema test on the reference compound (designated "Ref."), 4[(3-benzoylphenyl)methyl]morpholine, disclosed in French Patent 1,549,342, are also given. All data were obtained on oral administration.

[1] = read-out: C.E. percent inhibition
[2] = dose 0.08 millimoles/kg, read-out: C.E. percent inhibition
[3] = dose 0.324 millimoles/kg, read-out: C.E. percent inhibition

SMILES | inhibition in vivo at 4 µmol/kg [1] [%] | inhibition in vivo at 20 µmol/kg [1] [%] | inhibition in vivo at 80 µmol/kg [2] [%] | inhibition in vivo at 324 µmol/kg [3] [%] | inhibition in vivo at 40 µmol/kg (dose 0.04 millimoles/kg, read-out: C.E. percent inhibition) [%] | C.E. percent inhibition (Table B) (dose 0.08 millimoles/kg) [%] | C.E. percent inhibition (Table B) (dose 0.324 millimoles/kg) [%]
OC(c1ccccc1)c1cccc(CCN2CCCCC2CC2CCCCC2)c1 (stereo not drawn) [Example 1A, 2-Cyclohexylmethyl-1-{2-[3-(α-hydroxybenzyl)phenyl]ethyl}piperidine] | 0 | 0 | 51 | 62 |  |  | 
CC(CN1CCCCC1CC1CCCCC1)c1cccc(C(O)c2c(Cl)cccc2Cl)c1 (stereo not drawn) [Example 5A, 2-Cyclohexylmethyl-1-{2-[3-(α-hydroxy-2,6-dichlorobenzyl)phenyl]propyl}piperidine] | 0 | 0 | 58 | 68 |  |  | 
CC(CN1CCCCC1CC1CCCCC1)c1cccc(C(O)c2cccc(Cl)c2)c1 (stereo not drawn) [Example 3A, 2-Cyclohexylmethyl-1-{2-[3-(α-hydroxy-3-chlorobenzyl)phenyl]propyl}piperidine] | 0 | 0 | 34 | 75 |  |  | 
CN(C)CCCNCCc1cccc(C(=O)c2ccccc2)c1 [Example 1D, N-[2-(3-Benzoylphenyl)ethyl]-N-(3-dimethylaminopropyl)amine dihydrochloride hemi-hydrate] |  |  | 36 | 65 |  |  | 
CC(CN1CCCCC1CC1CCCCC1)c1cccc(C(=O)c2cccc(Cl)c2)c1 (stereo not drawn) [Example 20B, 2-Cyclohexylmethyl-1-{2-[3-(3-chlorobenzoyl)phenyl]propyl}piperidine] | 14 | 0 | 22 | 65 |  |  | 
O=C(c1ccccc1)c1cccc(CCN2CCCCC2CC2CCCCC2)c1 (stereo not drawn) [Example 20A, 2-Cyclohexylmethyl-1-[2-(3-benzoylphenyl)ethyl]piperidine] |  | 25 | 46 | 70 | 9 |  | 
ON=C(c1ccccc1)c1cccc(CCN2CCOCC2)c1 [Example 15A, 4-[2-(3-Benzoylphenyl)ethyl]morpholine oxime] |  |  | 27 | 29 |  |  | 
CC(C(=O)N1CCN(C2CCCC2)CC1)c1cccc(C(=O)c2ccccc2)c1.Cl (stereo not drawn) [Example 1J, 4-Cyclopentyl-1-[α-(3-benzoylphenyl)propionyl]piperazine hydrochloride] |  |  |  |  |  | 18 | 72
C=C(c1ccccc1)c1cccc(C(C)CN2CCCCC2CC2CCCCC2)c1 (stereo not drawn) [Example 17, 2-cyclohexylmethyl-1-{2-[3-(1-phenyl-1-vinyl)phenyl]propyl}piperidine] | 9 | 16 | 47 | 67 |  |  | 
CC(CN1CCCCC1CC1CCCCC1)c1cccc(C(=O)c2ccc(Cl)c(Cl)c2)c1 (stereo not drawn) [Example 20C, 2-Cyclohexylmethyl-1-{2-[3-(3,4-dichlorobenzoyl)phenyl]propyl}piperidine] | 17 | 15 | 19 | 51 |  |  | 
Cc1ccc(C(=O)c2cccc(C(C)CN3CCCCC3CC3CCCCC3)c2)cc1 (stereo not drawn) [Example 7C, 2-Cyclohexylmethyl-1-{2-[3-(4-methylbenzoyl)phenyl]propyl}piperidine] | 0 | 10 | 58 | 75 |  |  | 
CN(C)C(c1ccccc1)c1cccc(CCN2CCOCC2)c1 (stereo not drawn) [Example 22, 4-{2-[3-(α-dimethylaminobenzyl)phenyl]ethyl}morpholine] |  |  | 29 | 63 |  |  | 
CC(CN1CCOCC1)c1cccc(C(N)c2ccccc2)c1 (stereo not drawn) [Example 16C, 4-{2-[3-(α-Aminobenzyl)phenyl]propyl}morpholine dihydrochloride] |  |  | 49 | 84 |  |  | 
